Laboratory results as given in patent publication US20080220103A1, “METHOD FOR TREATING/CONTROLLING/KILLING FUNGI AND BACTERIA ON LIVING ANIMALS” (priority 2005, published 2008).
Where two headings read alike, the source gives them in different places.

Assays:
[1] = system: All bacteria (Staphylococcus species); test: MIC, CLSI M7-A7, pooled bacteria; assay type: cell-based, S. aureus, S. epidermidis; details: n = 12
Protocol: (§1) Minimum Inhibitory Concentration (MIC): Minimum inhibitory concentrations of synthetic and semisynthetic and natural products against dermatophytes were determined using a modification of the Clinical Laboratory Standards Institute (CLSI, formerly National Committee of Clinical Laboratory Standards, NCCLS) M38A standard method for dermatophytes, while MIC of these agents against Candida species were determined using the CLSI M27-A2 methodology. The method used to determine the MIC against bacteria was based on the CLSI document M7-A7.
(§2) For bacterial species, the medium used to evaluate the antibacterial activity of agents and essential oils was Mueller-Hinton (Oxoid Ltd., Basingstoke, Hampshire, England). Serial dilutions of miconazole, terbinafine, and tolnaftate were prepared in a range of 0.125-64 μg/ml and serial dilutions of tea tree oil were prepared in a range of 0.0078-4 μg/ml, while those for the rest of the essential oils were prepared in a range 0.031-16 μg/ml.
(§3) In the following Tables, MIC50 and MIC90 are defined as the minimal concentrations of a compound that can inhibit 50% and 90% of the tested organisms, respectively.

All yeasts = test: MIC, CLSI M27-A2, pooled yeasts; assay type: cell-based, C. albicans, C. parapsilosis; details: n = 12
Protocol: as §1
(§4) The remaining essential oils were prepared in a dilution range of 0.03-16 μg/ml. For Candida the MIC was read at 24 hours and defined as the lowest concentration to inhibit 50% of fungal growth as compared to the growth control (Table 4).
as §3

C. parapsilosis = test: MIC, CLSI M27-A2; assay type: cell-based, Candida parapsilosis; details: Lodderomyces parapsilosis
Protocol: as §1, §4

T. rubrum = test: Minimum fungicidal concentration (Canton et al.); assay type: cell-based, Trichophyton rubrum; details: for MFC: Trichophyton rubrum
Protocol: (§5) Minimum fungicidal concentration (MFC): The minimum fungicidal concentrations of various agents were determined using the technique described by Canton et al. (Antimicrob Agents Chemother. 2004 8:2477-82). In that method, fungal conidia were collected following growth on potato dextrose agar (PDA) plates and were used to inoculate 96-well plates containing different concentrations of agents. Following incubation at 35° C. for 4 days (for dermatophytes) or 24 hours (for yeast), wells showing no visible growth were cultured to determine the MFC (defined as the lowest concentration of a given agent that kills>99.999% of fungal conidia or spores). The MFC value represents the level of the agent at which spores or conidia were killed.

T. mentagrophytes [2] = test: Minimum fungicidal concentration (Canton et al.); assay type: cell-based, Trichophyton mentagrophytes; details: Trichophyton mentagrophytes
Protocol: as §5

T. mentagrophytes [3] = test: MIC, modified CLSI M38A broth dilution; assay type: cell-based, Trichophyton mentagrophytes; details: for MIC: Trichophyton mentagrophytes
Protocol: as §1
(§6) For dermatophytes, serial dilutions of terbinafine, tolnaftate were prepared in a range of 0.004-2 μg/ml, while for miconazole concentrations ranged between 0.015-8 μg/ml. Finally, for essential oils, the concentrations tested were between 0.03-16 μg/ml. The only exception was tea tree oil where dilutions were prepared in a range of 0.0078-4 μg/ml. The MIC was read at 4 days post inoculation and defined as the lowest concentration of an agent to inhibit 80% of fungal growth as compared to the growth control (Table 2).

E. floccosum [4] = test: MIC, modified CLSI M38A broth dilution; assay type: cell-based, Epidermophyton floccosum
Protocol: as §1, §6

S. aureus = test: MIC, CLSI M7-A7, Mueller-Hinton; assay type: cell-based, Staphylococcus aureus
Protocol: as §1, §2

E. floccosum [5] = test: Minimum fungicidal concentration (Canton et al.); assay type: cell-based, Epidermophyton floccosum; details: Epidermophyton floccosum
Protocol: as §5

All dermatophytes [6] = test: MIC, modified CLSI M38A, pooled dermatophytes; assay type: cell-based, E. floccosum, T. rubrum, T. mentagrophytes; details: n = 18
Protocol: as §1, §6, §3

All dermatophytes [7] = test: Minimum fungicidal concentration, pooled dermatophytes; assay type: cell-based, E. floccosum, T. rubrum, T. mentagrophytes
Protocol: as §5, §3

S. epidermidis = test: MIC, CLSI M7-A7, Mueller-Hinton; assay type: cell-based; details: for MIC: read-out: MIC
Protocol: as §1, §2

[8] = Epidermophyton floccosum, E. floccosum, n = 6
[9] = Staphylococcus aureus, S. aureus
[10] = Staphylococcus epidermidis, S. epidermidis, n = 6

Clc1ccc(COC(Cn2ccnc2)c2ccc(Cl)cc2Cl)c(Cl)c1 (stereo not drawn) [Miconazole, miconazole]
2 µg/mL: MIC90 ([1]; Staphylococcus) | MIC (S. aureus; S. aureus strain 733) | MIC (S. aureus; S. aureus strain 734) | MIC (S. aureus; S. aureus strain 8470) | MIC Range (S. aureus; S. aureus, n = 6) | MIC50 (S. aureus; [9]) | MIC90 (S. aureus; [9]) | MIC (S. aureus; Staphylococcus aureus, S. aureus strain 730, 80% inhibition, 16 h, read-out: MIC) | MIC (S. aureus; Staphylococcus aureus, S. aureus strain 732, read-out: MIC) | MFC (E. floccosum [5]; E. floccosum strain 1666, read-out: MFC)
16 µg/mL: MIC (C. parapsilosis; C. parapsilosis strain 7668) | MIC90 (C. parapsilosis; C. parapsilosis, n = 6)
0.125 µg/mL: MIC (T. mentagrophytes [3]; T. mentagrophytes strain 2128) | MIC (E. floccosum [4]; Epidermophyton floccosum, E. floccosum strain 1666) | MIC (E. floccosum [4]; Epidermophyton floccosum, E. floccosum strain 1798) | MIC (E. floccosum [4]; Epidermophyton floccosum, E. floccosum strain 1926) | MIC (E. floccosum [4]; Epidermophyton floccosum, E. floccosum strain 1961) | MIC (E. floccosum [4]; Epidermophyton floccosum, E. floccosum strain 2165) | MIC50 (E. floccosum [4]; [8]) | MIC90 (E. floccosum [4]; [8]) | MIC50 (All dermatophytes [6])
≥ 8 µg/mL: MFC (All dermatophytes [7]; all T. mentagrophytes isolates and the majority of T. rubrum and E. floccosum isolates, read-out: MFC)
1 to 8 µg/mL: MFC range (row MIC Range) (T. rubrum; T. rubrum, n = 6)
> 16 µg/mL: MIC90 (All yeasts) | MIC (C. parapsilosis; C. parapsilosis strain 8148)
0.015 µg/mL: MIC (T. mentagrophytes [3]; T. mentagrophytes strain 2126)
0.5 to 1 µg/mL: MIC Range (S. epidermidis; S. epidermidis, n = 6)
1 µg/mL: MIC50 ([1]; Staphylococcus) | MFC (T. rubrum; T. rubrum strain 2246, read-out: MFC) | MIC (S. epidermidis; Staphylococcus epidermidis, S. epidermidis strain 8473) | MIC (S. epidermidis; Staphylococcus epidermidis, S. epidermidis strain 8475) | MIC (S. epidermidis; Staphylococcus epidermidis, S. epidermidis strain 8476) | MIC (S. epidermidis; Staphylococcus epidermidis, S. epidermidis strain 8477) | MIC50 (S. epidermidis; [10]) | MIC90 (S. epidermidis; [10])
0.06 µg/mL: MIC (E. floccosum [4]; Epidermophyton floccosum, E. floccosum strain 1925)
0.25 µg/mL: MIC (T. mentagrophytes [3]; T. mentagrophytes strain 2124) | MIC (T. mentagrophytes [3]; T. mentagrophytes strain 2125) | MIC (T. mentagrophytes [3]; T. mentagrophytes strain 2127) | MIC90 (All dermatophytes [6])
> 8 µg/mL: MFC (T. mentagrophytes [2]; T. mentagrophytes strain 2124, read-out: MFC) | MFC (T. mentagrophytes [2]; T. mentagrophytes strain 2125, read-out: MFC) | MFC (T. mentagrophytes [2]; T. mentagrophytes strain 2127, read-out: MFC) | MFC (T. mentagrophytes [2]; T. mentagrophytes strain 2128, read-out: MFC) | MFC (T. mentagrophytes [2]; T. mentagrophytes, n = 6, read-out: MFC, row MIC50) | MFC (T. mentagrophytes [2]; T. mentagrophytes, n = 6, read-out: MFC, row MIC90) | MFC (E. floccosum [5]; E. floccosum strain 1926, read-out: MFC) | MFC (E. floccosum [5]; E. floccosum strain 1961, read-out: MFC) | MFC (E. floccosum [5]; E. floccosum strain 2165, read-out: MFC) | MFC (E. floccosum [5]; E. floccosum, n = 6, read-out: MFC, row MIC90) | MFC (All dermatophytes [7]; All dermatophytes, n = 18, read-out: MFC, row MIC90)
8 µg/mL: MIC (C. parapsilosis; C. parapsilosis strain 7672) | MFC (T. rubrum; T. rubrum strain 1967, read-out: MFC) | MFC (T. rubrum; T. rubrum strain 8063, read-out: MFC) | MFC (T. rubrum; T. rubrum strain 8071, read-out: MFC) | MFC (T. rubrum; T. rubrum strain 8092, read-out: MFC) | MFC (T. rubrum; T. rubrum, n = 6, read-out: MFC, row MIC50) | MFC (T. rubrum; T. rubrum, n = 6, read-out: MFC, row MIC90) | MFC (E. floccosum [5]; E. floccosum strain 1925, read-out: MFC) | MFC (E. floccosum [5]; E. floccosum, n = 6, read-out: MFC, row MIC50) | MFC (All dermatophytes [7]; All dermatophytes, n = 18, read-out: MFC, row MIC50)
0.5 µg/mL: MFC (E. floccosum [5]; E. floccosum strain 1798, read-out: MFC) | MIC (S. epidermidis; Staphylococcus epidermidis, S. epidermidis strain 8472) | MIC (S. epidermidis; Staphylococcus epidermidis, S. epidermidis strain 8474)
4 µg/mL: MIC50 (All yeasts) | MIC (C. parapsilosis; C. parapsilosis strain 7629) | MIC (C. parapsilosis; C. parapsilosis strain 7995) | MIC (C. parapsilosis; C. parapsilosis strain 8442) | MIC50 (C. parapsilosis; C. parapsilosis, n = 6) | MFC (T. rubrum; T. rubrum strain 2098, read-out: MFC)
0.5 to 2 µg/mL: MIC Range [1]
0.06 to 0.125 µg/mL: MIC Range (E. floccosum [4]; E. floccosum, n = 6)
0.03 µg/mL: MIC (T. mentagrophytes [3]; T. mentagrophytes strain 1720)
0.015 to 0.25 µg/mL: MIC Range (T. mentagrophytes [3]; T. mentagrophytes, n = 6) | MIC Range (All dermatophytes [6])
